Data taken from ChEMBL document CHEMBL1201862, “PubChem BioAssay data set” (2004).
Active and inactive are the calls of the source.

Assays:
[1] = target: T1, Intestinal-type alkaline phosphatase (Mus musculus, UniProt P24822); test: PubChem AID 488875; format: functional
[2] = target: T2, Intestinal-type alkaline phosphatase (Homo sapiens, UniProt P09923); test: human intestinal alkaline phosphatase activators, dose response, biochemical, luminescence, uHTS hits (AID 463120); format: functional
[3] = target: T2, Intestinal-type alkaline phosphatase; test: human IAP activators, dose response, biochemical, luminescent, uHTS hits, set 2 (AID 488817); format: functional;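 also: potency of activators that raise enzyme activity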
[4] = target: T3, Alkaline phosphatase, tissue-nonspecific isozyme (Homo sapiens, UniProt P05186); test: TNAP enzyme activators, dose response, selectivity assay for human IAP activator project, biochemical, TNAP isozyme, human IAP uHTS hits (AID 488886); format: functional;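 also: potency of compounds raising TNAP activity as a selectivity check on IAP activators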
T3 sequence (P05186 whole entry): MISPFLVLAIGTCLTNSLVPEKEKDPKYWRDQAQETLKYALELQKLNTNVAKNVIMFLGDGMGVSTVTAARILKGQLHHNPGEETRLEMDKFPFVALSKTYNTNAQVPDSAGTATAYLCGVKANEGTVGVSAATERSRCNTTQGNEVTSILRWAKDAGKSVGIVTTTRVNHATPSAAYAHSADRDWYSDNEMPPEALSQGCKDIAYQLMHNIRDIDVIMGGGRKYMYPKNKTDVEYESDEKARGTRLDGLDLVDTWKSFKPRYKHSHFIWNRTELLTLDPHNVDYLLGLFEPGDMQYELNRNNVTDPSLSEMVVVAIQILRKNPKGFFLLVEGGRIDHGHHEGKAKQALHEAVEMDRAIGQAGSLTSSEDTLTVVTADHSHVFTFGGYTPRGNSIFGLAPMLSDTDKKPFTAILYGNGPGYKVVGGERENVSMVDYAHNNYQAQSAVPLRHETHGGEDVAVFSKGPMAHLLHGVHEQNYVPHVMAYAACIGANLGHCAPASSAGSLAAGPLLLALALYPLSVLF

[5] = target: T4, Voltage-gated N-type calcium channel alpha-1B subunit/Amyloid beta A4 precursor protein-binding family A member 1 (Homo sapiens, UniProt Q00975+Q02410); format: protein assay
[6] = target: T4, Voltage-gated N-type calcium channel alpha-1B subunit/Amyloid beta A4 precursor protein-binding family A member 1; format: protein assay; remark: listed apart in the source
[7] = target: Glucose-6-phosphate 1-dehydrogenase (Homo sapiens, UniProt P11413); test: human G6PD enzyme inhibitors, dose response, selectivity assay for P. falciparum G6PD inhibitor project, biochemical, fluorescence (AID 504792); format: functional
[8] = target: T5, DNA dC->dU-editing enzyme APOBEC-3G (Homo sapiens, UniProt Q9HC16); test: Dose Response confirmation of small molecule APOBEC3G DNA Deaminase Inhibitors via a fluorescence-based single-stranded DNA deaminase assay. [Related pubchem assays (depositor defined):AID493012, AID493028]; format: functional
[9] = target: T1, Intestinal-type alkaline phosphatase; test: PubChem AID 488874; format: functional
SUMO E1/E2 = SUMO E1/E2 (Homo sapiens, UniProt P63279+Q9UBE0+Q9UBT2); test: SAR analysis of SUMOylation using HTRF in an in-Vitro dose response assay. [Related pubchem assays (depositor defined):AID2006, AID2011, AID2018, AID2069, AID2658]; format: functional
[10] = target: T4, Voltage-gated N-type calcium channel alpha-1B subunit/Amyloid beta A4 precursor protein-binding family A member 1; test: disruptors of Mint-PDZ/N-type channel peptide interaction – biochemical, HTRF, set 2, SAR follow-up (AID 434980); format: functional
[11] = target: T4, Voltage-gated N-type calcium channel alpha-1B subunit/Amyloid beta A4 precursor protein-binding family A member 1; test: disruptors of Mint-PDZ/N-type channel peptide interaction – biochemical, HTRF, SAR follow-up (AID 2489); format: functional
[12] = inhibitors of firefly luciferase expression or activity, dose response, H4 neuroglioma cells, luminescence (AID 1990); format: functional, cell-based
HEK293 [13] = test: NOD1 signaling inhibitors, primary screen, cell-based, luminescence, uHTS (AID 1578); format: functional; details: Homo sapiens
HEK293 [14] = test: cells; format: functional, cell-based; details: Homo sapiens
[15] = Luminescence Cell-Based Dose Response HTS to Identify Inhibitors of 5'UTR Stem-Loop Driven Prion Protein mRNA Translation in H4 Neuroglioblastoma Cells. [Related pubchem assays: 1827 (Project Summary), 1813 (Primary HTS)]; format: functional
[16] = inhibitors of SNCA 5'UTR-driven reporter translation, confirmation, H4 neuroglioma cells, luminescence (AID 1988); format: functional, cell-based
HEK293 [17] = test: cells; format: functional, cell-based; details: Homo sapiens; remark: listed apart in the source
[18] = target: Nucleotide-binding oligomerization domain-containing protein 2 (Homo sapiens, UniProt Q9HC29); test: NOD2 signaling inhibitors, cell-based, luminescence, uHTS, HEK293 (AID 1566); format: functional
HEK293 [19] = test: NOD2 signaling inhibitors in MDP-stimulated cells, cell-based, uHTS, luminescence (AID 2001); format: functional; details: Homo sapiens
HEK293 [20] = test: cells; format: functional, cell-based; details: Homo sapiens; remark: listed apart in the source
[21] = target: DNA dC->dU-editing enzyme APOBEC-3A (Homo sapiens, UniProt P31941); test: Dose Response confirmation of small molecule APOBEC3A DNA Deaminase Inhibitors via a fluorescence-based single-stranded DNA deaminase assay. [Related pubchem assays (depositor defined):AID493011, AID493024]; format: functional
[22] = target: T5, DNA dC->dU-editing enzyme APOBEC-3G; format: functional
[23] = target: T2, Intestinal-type alkaline phosphatase; test: Dose Response confirmation of uHTS hits from a small molecule inhibitors of human intestinal alkaline phosphatase via a luminescent assay. [Related pubchem assays (depositor defined):AID2544, AID2574]; format: functional
[24] = target: SWI/SNF-related matrix-associated actin-dependent regulator of chromatin subfamily A member 2 (Homo sapiens, UniProt P51531); test: Luminescence-based cell-based high throughput dose response assay to identify activators of the function of SWI/SNF related, matrix associated, actin dependent regulator of chromatin, subfamily a, member 2 (SMARCA2, BRM).; format: functional
[25] = Counterscreen for activators of the function of SWI/SNF related, matrix associated, actin dependent regulator of chromatin, subfamily a, member 2 (SMARCA2, BRM): Luminescence-based cell-based high throughput dose response assay to identify non-selective compounds using the VP16 reporter assay.; format: functional
[26] = target: T6, Fructose-bisphosphate aldolase (Mycobacterium tuberculosis, UniProt P9WQA3); test: Fluorescence-based biochemical high throughput dose response assay for inhibitors of the fructose-bisphosphate aldolase (FBA) of M. tuberculosis.; format: functional
T6 sequence (P9WQA3 whole entry): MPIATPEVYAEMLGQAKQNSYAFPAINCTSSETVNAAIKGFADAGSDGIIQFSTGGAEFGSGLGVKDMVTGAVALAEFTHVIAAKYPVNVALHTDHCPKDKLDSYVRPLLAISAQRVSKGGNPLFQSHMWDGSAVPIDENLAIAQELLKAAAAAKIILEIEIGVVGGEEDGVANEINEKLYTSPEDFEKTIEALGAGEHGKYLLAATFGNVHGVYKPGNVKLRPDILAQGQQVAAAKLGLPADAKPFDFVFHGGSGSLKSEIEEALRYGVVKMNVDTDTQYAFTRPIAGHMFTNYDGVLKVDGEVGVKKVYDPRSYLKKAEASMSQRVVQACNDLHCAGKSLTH

[27] = target: T7, Neuropeptides B/W receptor type 1 (Homo sapiens, UniProt P48145); test: Fluorescence-based dose response cell-based high throughput screening assay to identify antagonists of the G-protein coupled receptor 7 (GPR7). [Related pubchem assays: 1952 (Screening assay (GPR7 antagonists).), 1880 (Summary AID.)]; format: functional
T7 sequence (P48145 whole entry): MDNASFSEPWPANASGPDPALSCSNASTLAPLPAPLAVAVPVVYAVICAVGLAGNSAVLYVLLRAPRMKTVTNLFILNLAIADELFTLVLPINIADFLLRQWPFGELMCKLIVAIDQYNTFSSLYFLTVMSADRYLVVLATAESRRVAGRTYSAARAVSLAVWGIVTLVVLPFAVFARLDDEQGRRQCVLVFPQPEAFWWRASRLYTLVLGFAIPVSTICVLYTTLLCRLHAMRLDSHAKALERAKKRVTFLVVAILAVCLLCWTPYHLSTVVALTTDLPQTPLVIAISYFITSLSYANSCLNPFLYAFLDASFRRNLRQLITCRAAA

[28] = target: T8, Melanin-concentrating hormone receptor 1 (Homo sapiens, UniProt Q99705); test: Fluorescence-based counterscreen for antagonists of the G-protein coupled receptor 7 (GPR7): cell-based high throughput dose response assay to identify antagonists of the melanin-concentrating hormone receptor 1 (MCHR1).; format: functional
[29] = target: T8, Melanin-concentrating hormone receptor 1; test: Late-stage fluorescence-based counterscreen for antagonists of the G-protein coupled receptor 7 (GPR7): cell-based dose response assay to identify antagonists of the melanin-concentrating hormone receptor 1 (MCHR1). [Related pubchem assays (depositor defined):AID1861, AID1880, AID1952, AID2148, AID2251, AID2257, AID485339]; format: functional
[30] = target: T7, Neuropeptides B/W receptor type 1; test: GPR7 antagonist potency, late-stage follow-up, cell-based, fluorescence, dose response (AID 463251); format: functional
[31] = target: T9, Corticotropin-releasing factor receptor 2/Corticotropin-releasing factor-binding protein (Homo sapiens, UniProt P24387+Q13324); test: activators of CRF receptor 2 with binding protein – uHTS hits, confirmation (AID 602473); format: functional; details: read-out: EC50_Mean
T9 sequence (Q13324 whole entry): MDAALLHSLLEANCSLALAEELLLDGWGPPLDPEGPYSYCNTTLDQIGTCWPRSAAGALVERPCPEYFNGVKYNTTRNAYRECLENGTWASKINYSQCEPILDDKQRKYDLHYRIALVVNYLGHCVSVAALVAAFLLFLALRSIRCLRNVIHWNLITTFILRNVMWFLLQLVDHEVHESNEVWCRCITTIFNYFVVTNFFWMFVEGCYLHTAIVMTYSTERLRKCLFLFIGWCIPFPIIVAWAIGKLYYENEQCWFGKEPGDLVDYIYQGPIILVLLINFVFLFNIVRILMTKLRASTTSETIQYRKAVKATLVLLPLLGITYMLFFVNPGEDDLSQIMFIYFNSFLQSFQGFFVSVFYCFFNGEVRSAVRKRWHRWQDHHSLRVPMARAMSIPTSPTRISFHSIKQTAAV
T9 sequence (P24387 whole entry): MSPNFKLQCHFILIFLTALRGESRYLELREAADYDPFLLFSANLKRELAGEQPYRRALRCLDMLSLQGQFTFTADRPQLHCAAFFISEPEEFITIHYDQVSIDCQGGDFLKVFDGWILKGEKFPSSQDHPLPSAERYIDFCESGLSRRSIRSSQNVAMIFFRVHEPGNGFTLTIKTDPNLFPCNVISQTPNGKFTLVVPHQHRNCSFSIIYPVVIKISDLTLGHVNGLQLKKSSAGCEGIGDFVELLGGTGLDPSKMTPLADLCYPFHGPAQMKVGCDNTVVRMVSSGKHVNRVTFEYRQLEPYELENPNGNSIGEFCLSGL

[32] = target: Phosphoethanolamine/phosphocholine phosphatase (Homo sapiens, UniProt Q8TCT1); test: SAR assay for compounds that inhibit PHOSPHO1. [Related pubchem assays (depositor defined):AID1545, AID1565, AID1574]

T2 sequence (P09923 whole entry): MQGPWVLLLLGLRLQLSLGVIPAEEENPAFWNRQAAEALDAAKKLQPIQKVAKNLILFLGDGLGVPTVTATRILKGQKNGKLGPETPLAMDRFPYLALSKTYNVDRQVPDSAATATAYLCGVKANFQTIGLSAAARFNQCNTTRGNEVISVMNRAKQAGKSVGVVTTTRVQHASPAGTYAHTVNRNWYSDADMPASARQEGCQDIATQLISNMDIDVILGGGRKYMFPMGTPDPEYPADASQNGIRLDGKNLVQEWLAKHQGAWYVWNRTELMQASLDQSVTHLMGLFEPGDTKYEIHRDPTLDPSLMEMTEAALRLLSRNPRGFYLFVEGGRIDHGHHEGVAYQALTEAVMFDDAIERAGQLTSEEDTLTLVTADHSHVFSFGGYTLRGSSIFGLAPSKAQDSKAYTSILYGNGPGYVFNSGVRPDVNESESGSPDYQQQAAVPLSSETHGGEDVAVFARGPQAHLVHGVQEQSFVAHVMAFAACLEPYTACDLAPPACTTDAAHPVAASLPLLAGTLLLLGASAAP
T4 sequence (Q00975 whole entry): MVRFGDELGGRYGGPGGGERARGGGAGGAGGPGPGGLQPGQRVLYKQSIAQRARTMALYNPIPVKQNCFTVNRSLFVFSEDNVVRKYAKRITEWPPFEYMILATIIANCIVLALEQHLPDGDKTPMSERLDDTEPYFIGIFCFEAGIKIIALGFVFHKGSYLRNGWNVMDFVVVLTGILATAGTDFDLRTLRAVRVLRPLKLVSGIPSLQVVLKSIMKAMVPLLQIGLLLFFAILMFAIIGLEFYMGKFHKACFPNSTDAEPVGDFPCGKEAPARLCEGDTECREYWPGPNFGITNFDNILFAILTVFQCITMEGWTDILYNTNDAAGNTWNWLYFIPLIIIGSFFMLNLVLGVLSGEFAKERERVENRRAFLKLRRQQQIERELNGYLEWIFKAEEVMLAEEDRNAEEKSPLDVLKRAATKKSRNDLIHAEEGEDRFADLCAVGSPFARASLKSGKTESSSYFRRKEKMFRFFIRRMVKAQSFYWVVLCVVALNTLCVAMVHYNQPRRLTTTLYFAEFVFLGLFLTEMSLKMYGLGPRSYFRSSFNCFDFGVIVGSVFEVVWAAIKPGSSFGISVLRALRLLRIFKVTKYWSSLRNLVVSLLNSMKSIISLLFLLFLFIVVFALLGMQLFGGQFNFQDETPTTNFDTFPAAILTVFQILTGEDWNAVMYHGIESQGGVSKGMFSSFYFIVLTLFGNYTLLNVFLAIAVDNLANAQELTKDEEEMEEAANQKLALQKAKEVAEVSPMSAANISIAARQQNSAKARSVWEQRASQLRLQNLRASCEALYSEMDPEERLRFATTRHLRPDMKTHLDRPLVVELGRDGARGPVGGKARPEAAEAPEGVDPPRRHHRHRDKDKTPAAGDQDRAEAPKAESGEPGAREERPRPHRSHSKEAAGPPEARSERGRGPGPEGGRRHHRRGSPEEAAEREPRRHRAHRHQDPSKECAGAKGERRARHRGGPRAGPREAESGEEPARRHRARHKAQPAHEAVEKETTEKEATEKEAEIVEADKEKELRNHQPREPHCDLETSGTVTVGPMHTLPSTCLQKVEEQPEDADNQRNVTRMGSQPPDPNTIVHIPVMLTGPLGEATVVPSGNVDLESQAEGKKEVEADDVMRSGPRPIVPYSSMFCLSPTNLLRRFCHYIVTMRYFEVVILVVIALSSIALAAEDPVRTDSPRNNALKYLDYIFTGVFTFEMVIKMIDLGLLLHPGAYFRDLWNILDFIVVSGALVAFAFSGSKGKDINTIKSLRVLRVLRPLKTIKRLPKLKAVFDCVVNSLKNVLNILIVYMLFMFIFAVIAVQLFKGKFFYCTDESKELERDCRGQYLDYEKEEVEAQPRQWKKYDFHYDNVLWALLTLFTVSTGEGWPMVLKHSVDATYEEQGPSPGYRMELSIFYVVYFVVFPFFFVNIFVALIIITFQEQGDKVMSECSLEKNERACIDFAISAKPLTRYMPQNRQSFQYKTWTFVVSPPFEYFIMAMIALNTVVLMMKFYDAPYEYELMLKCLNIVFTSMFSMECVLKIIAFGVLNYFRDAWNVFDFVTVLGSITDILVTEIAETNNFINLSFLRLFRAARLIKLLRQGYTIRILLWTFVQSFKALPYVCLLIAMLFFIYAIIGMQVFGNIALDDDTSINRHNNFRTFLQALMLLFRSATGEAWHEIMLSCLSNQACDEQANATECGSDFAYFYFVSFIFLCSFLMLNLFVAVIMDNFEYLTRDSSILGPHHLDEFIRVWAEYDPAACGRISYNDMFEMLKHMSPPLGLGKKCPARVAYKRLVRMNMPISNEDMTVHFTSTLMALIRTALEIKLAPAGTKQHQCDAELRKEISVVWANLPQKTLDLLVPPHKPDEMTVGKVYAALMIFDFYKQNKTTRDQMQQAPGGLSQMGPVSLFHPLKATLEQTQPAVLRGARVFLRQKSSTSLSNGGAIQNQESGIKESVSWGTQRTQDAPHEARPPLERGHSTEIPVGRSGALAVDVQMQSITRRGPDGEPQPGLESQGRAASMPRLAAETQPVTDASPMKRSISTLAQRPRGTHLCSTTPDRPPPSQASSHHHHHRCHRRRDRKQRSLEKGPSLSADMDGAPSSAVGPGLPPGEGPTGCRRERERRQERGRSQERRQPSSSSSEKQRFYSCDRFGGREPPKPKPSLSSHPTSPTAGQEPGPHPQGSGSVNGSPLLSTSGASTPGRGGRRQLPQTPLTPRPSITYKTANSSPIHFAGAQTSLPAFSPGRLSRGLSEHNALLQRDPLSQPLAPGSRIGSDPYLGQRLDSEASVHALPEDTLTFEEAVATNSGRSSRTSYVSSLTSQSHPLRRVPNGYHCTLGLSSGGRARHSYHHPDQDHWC
T4 sequence (Q02410 whole entry): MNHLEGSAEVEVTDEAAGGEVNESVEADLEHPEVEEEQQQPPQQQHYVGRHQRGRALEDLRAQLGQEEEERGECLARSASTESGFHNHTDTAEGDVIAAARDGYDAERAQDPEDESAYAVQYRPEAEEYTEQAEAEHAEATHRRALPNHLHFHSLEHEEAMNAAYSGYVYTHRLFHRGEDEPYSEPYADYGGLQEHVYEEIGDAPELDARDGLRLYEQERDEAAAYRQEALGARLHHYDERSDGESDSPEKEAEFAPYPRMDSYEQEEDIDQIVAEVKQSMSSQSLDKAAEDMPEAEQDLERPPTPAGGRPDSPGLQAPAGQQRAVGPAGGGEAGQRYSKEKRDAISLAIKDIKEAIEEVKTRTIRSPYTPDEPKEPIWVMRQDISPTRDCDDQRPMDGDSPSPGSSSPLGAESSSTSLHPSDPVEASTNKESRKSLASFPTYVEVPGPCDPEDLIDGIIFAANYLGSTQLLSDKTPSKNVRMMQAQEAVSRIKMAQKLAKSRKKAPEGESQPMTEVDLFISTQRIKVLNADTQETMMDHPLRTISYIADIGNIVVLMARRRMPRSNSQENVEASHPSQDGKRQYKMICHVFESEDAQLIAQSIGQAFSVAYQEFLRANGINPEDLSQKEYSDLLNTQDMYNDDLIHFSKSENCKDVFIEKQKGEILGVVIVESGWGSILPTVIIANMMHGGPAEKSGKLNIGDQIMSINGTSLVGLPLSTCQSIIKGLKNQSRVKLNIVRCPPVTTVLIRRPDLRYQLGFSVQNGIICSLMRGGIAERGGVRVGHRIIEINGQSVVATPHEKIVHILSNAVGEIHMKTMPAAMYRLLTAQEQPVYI
T8 sequence (Q99705 whole entry): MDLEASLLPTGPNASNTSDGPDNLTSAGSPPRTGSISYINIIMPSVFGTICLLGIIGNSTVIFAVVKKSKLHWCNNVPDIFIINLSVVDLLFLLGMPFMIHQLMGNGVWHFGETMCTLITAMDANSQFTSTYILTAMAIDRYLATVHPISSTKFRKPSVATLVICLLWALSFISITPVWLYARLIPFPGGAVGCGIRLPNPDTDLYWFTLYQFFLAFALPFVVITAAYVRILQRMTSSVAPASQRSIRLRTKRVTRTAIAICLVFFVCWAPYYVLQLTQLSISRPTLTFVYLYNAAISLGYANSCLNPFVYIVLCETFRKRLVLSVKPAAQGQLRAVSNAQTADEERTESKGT
T5 sequence (Q9HC16 whole entry): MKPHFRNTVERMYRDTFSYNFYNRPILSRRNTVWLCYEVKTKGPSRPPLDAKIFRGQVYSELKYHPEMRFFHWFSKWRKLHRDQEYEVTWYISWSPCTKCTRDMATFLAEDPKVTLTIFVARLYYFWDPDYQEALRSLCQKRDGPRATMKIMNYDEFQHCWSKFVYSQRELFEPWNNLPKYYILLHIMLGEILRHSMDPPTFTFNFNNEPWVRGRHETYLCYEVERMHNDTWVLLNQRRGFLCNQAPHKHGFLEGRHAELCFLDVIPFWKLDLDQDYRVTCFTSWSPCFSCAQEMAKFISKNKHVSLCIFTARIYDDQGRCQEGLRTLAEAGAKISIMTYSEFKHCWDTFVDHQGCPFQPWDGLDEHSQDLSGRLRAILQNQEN
T1 sequence (P24822 whole entry): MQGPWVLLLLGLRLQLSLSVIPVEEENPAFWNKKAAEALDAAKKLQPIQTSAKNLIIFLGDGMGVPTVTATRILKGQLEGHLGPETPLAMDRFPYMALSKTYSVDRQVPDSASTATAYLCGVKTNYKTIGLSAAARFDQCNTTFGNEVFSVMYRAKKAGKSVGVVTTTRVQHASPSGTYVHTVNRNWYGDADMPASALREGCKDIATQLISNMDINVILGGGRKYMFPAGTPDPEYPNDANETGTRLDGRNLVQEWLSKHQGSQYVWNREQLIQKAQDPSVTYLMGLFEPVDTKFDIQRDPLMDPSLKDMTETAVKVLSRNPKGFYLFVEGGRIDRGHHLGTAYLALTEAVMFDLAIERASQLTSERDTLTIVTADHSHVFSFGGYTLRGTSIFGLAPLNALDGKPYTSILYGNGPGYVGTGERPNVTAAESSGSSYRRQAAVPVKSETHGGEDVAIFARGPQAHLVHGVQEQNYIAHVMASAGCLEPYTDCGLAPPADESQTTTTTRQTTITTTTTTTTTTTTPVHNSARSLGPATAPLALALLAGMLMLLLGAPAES

Cc1cc(C(=O)NC2CC(C)(C)Cc3c2cnn3-c2ccccc2)[nH]n1 (stereo unspecified)
EC50 [1]: 55.1 µM (active) | EC50 [2]: 70.7 µM (active) | EC50 [3]: 45.5 µM (active) | EC50 [4]: 48.2 µM (active)

Cc1cc(C)c2c(=O)n(CC(=O)NC3CCCC3)sc2n1
IC50 [5]: 7.6 µM (active) | IC50 [6]: 42.7 µM (active) | IC50 [7]: > 80 µM (inactive) | IC50 [8]: > 100 µM (inactive)

Cc1nc2c3ccccc3nc(NNC(=O)CCC(=O)NCCN3CCN(c4ccccc4)CC3)n2n1
IC50 [9]: 49.8 µM (active) | EC50 [2]: 8.73 µM (active) | EC50 [3]: 13.7 µM (active) | EC50 [4]: 14.1 µM (active)

COc1ccccc1CNC(=O)c1cc(-c2ccco2)nc2ccccc12
IC50 (SUMO E1/E2): 2.51 µM (active) | IC50 [10]: 22 µM (active) | IC50 [11]: 24.7 µM (active)

CCCCCCCn1ccc(=N)cc1
EC50 [12]: 13 µM (active) | EC50 (HEK293 [13]): 6.12 µM (active) | IC50 (HEK293 [14]): 5.72 µM (active) | EC50 [15]: > 120 µM (not active) | EC50 [16]: 14.8 µM (active) | IC50 (HEK293 [17]): 18.1 µM (active) | EC50 [18]: 8.15 µM (active) | IC50 (HEK293 [19]): 6.34 µM (active) | IC50 (HEK293 [20]): > 20 µM (inactive) | IC50 [21]: 1.83 µM (active) | IC50 [22]: 2.51 µM (active)

Cc1cccn2c(=O)c3cc(C(=O)NC4CCCC4)c(=N)n(C4CCCCC4)c3nc12
IC50 [23]: > 100 µM (inactive) | EC50 [24]: > 91.2 µM (inactive) | EC50 [25]: > 91.2 µM (inactive) | IC50 [26]: 469 nM (active)

COc1ccccc1-n1c(SCC(N)=O)nnc1-c1ccc(S(=O)(=O)N2CCCCC2)cc1
IC50 [27]: 5.36 µM (active) | IC50 [28]: > 43.8 µM (not active) | IC50 [29]: > 20 µM (inactive) | IC50 [30]: > 20 µM (inactive) | EC50 [31]: 12.7 µM (active)

COc1ccc(-c2nc(N)s[n+]2-c2ccccc2)cc1
IC50 [32]: 1.25 µM (inactive)
